The assay addresses MET (Homo sapiens, UniProt P08581). The assay can be described thus: pMET (Y1234/[…]) immunoblot densitometry in MET-amplified H1993 and EBC-1 cells, […] h dose response. It counts as cell-based.

SMILES strings stand for the structures.

MET, sequence (P08581 25-307): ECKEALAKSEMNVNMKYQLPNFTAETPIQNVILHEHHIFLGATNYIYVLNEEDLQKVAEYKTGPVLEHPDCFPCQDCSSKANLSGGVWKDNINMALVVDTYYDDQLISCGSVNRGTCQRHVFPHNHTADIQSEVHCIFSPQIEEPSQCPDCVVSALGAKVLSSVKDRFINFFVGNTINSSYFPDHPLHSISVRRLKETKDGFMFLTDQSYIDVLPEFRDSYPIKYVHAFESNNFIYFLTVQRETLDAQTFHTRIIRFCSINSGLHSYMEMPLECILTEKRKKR
MET, sequence (P08581 308-1390): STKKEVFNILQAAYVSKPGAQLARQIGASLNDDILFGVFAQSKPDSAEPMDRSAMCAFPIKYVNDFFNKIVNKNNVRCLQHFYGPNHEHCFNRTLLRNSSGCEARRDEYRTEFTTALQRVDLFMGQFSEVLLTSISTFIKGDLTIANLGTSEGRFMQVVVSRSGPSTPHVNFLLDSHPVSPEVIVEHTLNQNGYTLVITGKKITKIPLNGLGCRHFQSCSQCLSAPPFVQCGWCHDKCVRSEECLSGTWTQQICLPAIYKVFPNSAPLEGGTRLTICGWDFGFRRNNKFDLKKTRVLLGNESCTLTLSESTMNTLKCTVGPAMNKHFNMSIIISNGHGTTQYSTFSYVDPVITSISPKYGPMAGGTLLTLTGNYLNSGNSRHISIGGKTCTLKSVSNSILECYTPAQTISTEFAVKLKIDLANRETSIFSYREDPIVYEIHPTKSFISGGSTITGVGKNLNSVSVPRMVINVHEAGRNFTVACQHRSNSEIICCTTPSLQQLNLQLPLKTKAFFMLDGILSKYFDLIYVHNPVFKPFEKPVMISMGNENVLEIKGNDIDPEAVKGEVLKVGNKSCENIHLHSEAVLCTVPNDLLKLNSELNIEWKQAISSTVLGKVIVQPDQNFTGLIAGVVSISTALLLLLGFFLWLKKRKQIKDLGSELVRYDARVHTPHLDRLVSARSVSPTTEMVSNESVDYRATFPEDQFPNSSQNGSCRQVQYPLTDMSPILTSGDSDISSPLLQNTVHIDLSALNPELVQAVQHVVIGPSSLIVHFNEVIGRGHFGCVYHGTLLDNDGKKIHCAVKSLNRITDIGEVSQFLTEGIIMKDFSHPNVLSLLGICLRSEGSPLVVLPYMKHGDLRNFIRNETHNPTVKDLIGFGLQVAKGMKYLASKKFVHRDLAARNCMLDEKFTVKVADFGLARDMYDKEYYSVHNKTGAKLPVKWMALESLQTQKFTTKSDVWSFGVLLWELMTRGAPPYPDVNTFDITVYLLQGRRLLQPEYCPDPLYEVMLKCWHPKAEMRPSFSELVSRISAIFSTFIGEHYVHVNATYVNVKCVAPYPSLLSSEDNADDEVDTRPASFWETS

For `C[C@@H](c1ccc2nccn2c1)n1nnc2ncc(-c3cnn(C)c3)nc21` [savolitinib, (S)-1-(1-(Imidazo[1,2-a]pyridin-6-yl)ethyl)-6-(1-methyl-1H-pyrazol-4-yl)-1H-[1,2, 3]triazolo[4,5-b]pyrazine], the concentration for half-maximal inhibition (IC50) stood at 4.12 nM.

As usually defined, the IC50 is the concentration at which inhibition is half-maximal. Lower therefore signals inhibition by little substance.
